Experiments:
Assay in all cases: relative viability (nuclei count vs DMSO), 5 days (fraction); higher = more cells survive
VX-11e + Trametinib = compound: CC1=CN=C(N=C1C2=CNC(=C2)C(=O)N[C@H](CO)C3=CC(=CC=C3)Cl)NC4=C(C=C(C=C4)F)Cl [VX-11e] + CC(=O)Nc1cccc(-n2c(=O)n(C3CC3)c(=O)c3c(Nc4ccc(I)cc4F)n(C)c(=O)c(C)c32)c1 [Trametinib] (partner 0.02 µM)
Procedure, shortened: (§1)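 For relative viability, nuclei counts in treated wells were divided by those in vehicle wells. Lung cancer cell lines had been pin-tool dosed in 1536-well plates the day after seeding and cultured for 5 days, then fixed and stained in one step (final 0.05% Triton X-100, 1% formaldehyde, 1 ug/ml Hoechst) and imaged at 4×. Doses were one drug alone or a fixed anchor-drug dose plus five library-drug doses (not always all listed) in √10 steps, and values are duplicate-plate medians.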

VX-11e + Bortezomib = compound: CC1=CN=C(N=C1C2=CNC(=C2)C(=O)N[C@H](CO)C3=CC(=CC=C3)Cl)NC4=C(C=C(C=C4)F)Cl [VX-11e] + CC(C)C[C@H](NC(=O)[C@H](Cc1ccccc1)NC(=O)c1cnccn1)B(O)O [Bortezomib] (partner 0.002 µM)
Procedure, shortened: as §1

VX-11e + Pictilisib = compound: CC1=CN=C(N=C1C2=CNC(=C2)C(=O)N[C@H](CO)C3=CC(=CC=C3)Cl)NC4=C(C=C(C=C4)F)Cl [VX-11e] + CS(=O)(=O)N1CCN(Cc2cc3nc(-c4cccc5[nH]ncc45)nc(N4CCOCC4)c3s2)CC1 [Pictilisib] (partner 1 µM)
Procedure, shortened: as §1

VX-11e + Olaparib = compound: CC1=CN=C(N=C1C2=CNC(=C2)C(=O)N[C@H](CO)C3=CC(=CC=C3)Cl)NC4=C(C=C(C=C4)F)Cl [VX-11e] + O=C(c1cc(Cc2n[nH]c(=O)c3ccccc23)ccc1F)N1CCN(C(=O)C2CC2)CC1 [Olaparib] (partner 8 µM)
Procedure, shortened: as §1

| Cell Line | relative viability (VX-11e + Trametinib; first compound 0.04 µM) | relative viability (VX-11e + Trametinib; first compound 0.1265 µM) | relative viability (VX-11e + Trametinib; first compound 0.4 µM) | relative viability (VX-11e + Trametinib; first compound 1.265 µM) | relative viability (VX-11e + Trametinib; first compound 4 µM) | relative viability (VX-11e + Bortezomib; first compound 0.04 µM) | relative viability (VX-11e + Bortezomib; first compound 0.4 µM) | relative viability (VX-11e + Bortezomib; first compound 1.265 µM) | relative viability (VX-11e + Bortezomib; first compound 4 µM) | relative viability (VX-11e + Pictilisib; first compound 0.04 µM) | relative viability (VX-11e + Pictilisib; first compound 0.4 µM) | relative viability (VX-11e + Pictilisib; first compound 1.265 µM) | relative viability (VX-11e + Pictilisib; first compound 4 µM) | relative viability (VX-11e + Olaparib; first compound 0.04 µM) | relative viability (VX-11e + Olaparib; first compound 0.1265 µM) | relative viability (VX-11e + Olaparib; first compound 0.4 µM) | relative viability (VX-11e + Olaparib; first compound 1.265 µM) | relative viability (VX-11e + Olaparib; first compound 4 µM) | relative viability (VX-11e + Bortezomib; first compound 0.1265 µM) | relative viability (VX-11e + Pictilisib; first compound 0.1265 µM) |
| --- | --- | --- | --- | --- | --- | --- | --- | --- | --- | --- | --- | --- | --- | --- | --- | --- | --- | --- | --- | --- |
| ChaGo-K-1 | 0.928 | 0.909 | 0.842 | 0.881 | 0.869 | 1.01 | 1.11 | 0.759 | 0.772 | 0.351 | 0.587 | 0.567 | 0.569 | 0.451 | 0.473 | 0.416 | 0.43 | 0.378 |  |  |
| EKVX | 0.385 | 0.353 | 0.293 | 0.395 | 0.207 | 1.06 | 0.951 | 1 | 0.406 | 0.447 | 0.461 | 0.404 | 0.19 | 0.836 | 0.834 | 0.713 | 0.94 | 0.451 | 0.977 | 0.545 |
| EMC-BAC-2 | 0.937 | 0.791 | 0.518 | 0.538 | 0.402 | 1.04 | 1.14 | 1.02 | 0.858 | 0.468 | 0.516 | 0.432 | 0.337 | 0.529 | 0.492 | 0.468 | 0.711 | 0.636 | 1.01 | 0.488 |
| EPLC-272H | 0.268 | 0.299 |  | 0.225 | 0.173 | 0.94 | 0.841 | 0.839 | 0.665 | 0.301 | 0.266 | 0.213 | 0.233 | 0.771 | 0.833 | 0.588 | 0.38 | 0.219 | 0.799 | 0.299 |
| H3255 | 0.678 | 0.635 | 0.425 | 0.443 | 0.33 | 0.709 | 0.657 | 0.612 | 0.64 | 0.476 | 0.482 | 0.596 | 0.316 | 0.582 | 0.544 | 0.496 | 0.552 | 0.497 | 0.857 | 0.428 |
| HARA | 0.589 | 0.636 | 0.64 | 0.209 | 0.244 | 0.992 | 1.13 | 0.507 | 0.803 | 0.0961 | 0.322 | 0.341 | 0.188 | 0.893 | 0.705 | 0.939 | 0.295 | 0.525 | 1.08 | 0.425 |
| HCC-15 | 0.354 | 0.345 |  | 0.297 | 0.246 | 1.1 | 0.754 | 0.794 | 0.428 | 0.619 | 0.32 | 0.334 | 0.168 | 0.869 | 0.794 |  | 0.541 | 0.398 | 1.07 | 0.682 |
| HCC-44 | 1.05 | 1.07 | 0.92 | 0.888 | 0.607 | 0.913 | 0.857 | 0.646 | 0.453 | 0.539 | 0.628 | 0.359 | 0.163 | 1.02 | 0.893 | 0.897 | 1.05 | 0.93 | 0.912 | 0.552 |

— the supplement of paper PMC10307832
